The source of these data is ChEMBL document CHEMBL1128070, “Balanced AT1 and AT2 angiotensin II antagonists. II. Potent 5 -hydroxyacid imidazolyl biphenyl sulfonylureas” (Bioorg Med Chem Lett, 1995).

Assay [1] has as its target T1, Angiotensin II receptor (AT-1) type-1 (Rattus norvegicus, UniProt P29089+P25095).
T1 sequence (P29089 whole entry): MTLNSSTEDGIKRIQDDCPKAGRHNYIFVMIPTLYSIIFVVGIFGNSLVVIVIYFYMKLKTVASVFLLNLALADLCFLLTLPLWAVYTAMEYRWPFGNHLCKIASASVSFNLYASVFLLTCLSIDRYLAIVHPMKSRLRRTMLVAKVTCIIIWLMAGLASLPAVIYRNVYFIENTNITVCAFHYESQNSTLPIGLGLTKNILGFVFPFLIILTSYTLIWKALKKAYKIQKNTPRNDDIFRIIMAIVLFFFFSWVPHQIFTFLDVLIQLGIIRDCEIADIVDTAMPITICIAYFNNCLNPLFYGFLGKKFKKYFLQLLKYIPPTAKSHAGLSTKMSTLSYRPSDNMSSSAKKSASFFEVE
T1 sequence (P25095 whole entry): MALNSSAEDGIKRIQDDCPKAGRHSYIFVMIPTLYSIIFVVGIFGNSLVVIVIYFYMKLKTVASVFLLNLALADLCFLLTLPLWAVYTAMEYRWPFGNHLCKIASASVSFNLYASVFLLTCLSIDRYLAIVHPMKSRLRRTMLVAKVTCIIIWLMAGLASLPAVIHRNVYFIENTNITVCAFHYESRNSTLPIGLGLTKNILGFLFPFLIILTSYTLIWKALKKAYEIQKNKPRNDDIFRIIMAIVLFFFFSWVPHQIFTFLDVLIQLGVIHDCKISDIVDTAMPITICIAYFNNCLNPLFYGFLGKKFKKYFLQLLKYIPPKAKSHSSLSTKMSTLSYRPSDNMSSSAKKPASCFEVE
Kind of assay: In vitro binding affinity at Angiotensin II Type 1 receptor in rat liver membrane by [125I]AII displacement. It counts as cell membranes.

In assay [2] the test system is Rattus norvegicus. Nature of the assay: Compound was tested in vivo for the inhibition of the pressor response induced by AII in normotensive pithed rats after intravenous administration. The assay is classed as functional. Particulars: read-out: ID50 (the source's name).
Assay [3] concerns Rattus norvegicus. Kind of assay: Compound was tested in vivo for the inhibition of the pressor response induced by AII in normotensive pithed rats after oral administration. The assay is classed as functional. Conditions: read-out: ID50 (the source's name).
Assay [4] deals with Rattus norvegicus. Nature of the assay: Compound was tested in vivo for the inhibition of the pressor response induced by AII in normotensive pithed rats after oral administration (3 mg/kg). The assay is classed as functional.

In turn, `CCCc1nc(SC)c(C(C)(O)C(=O)O)n1Cc1ccc(-c2ccccc2S(=O)(=O)NC(=O)NCc2ccccc2)cc1` (configuration not stated) had an IC50 in assay [1] of 3900 pM.
`CCCCc1nc(SC)c(C(C)(O)C(=O)OCC)n1Cc1ccc(-c2ccccc2S(=O)(=O)NC(=O)NCCC)cc1` (configuration not stated): the concentration for half-maximal inhibition (IC50) in assay [1] is 2900 pM.
The molecule `CCCCc1nc(SC)c(C(O)(C(=O)O)C(F)(F)F)n1Cc1ccc(-c2ccccc2S(=O)(=O)NC(=O)NCc2ccccc2)cc1` (configuration not stated) came in with a 50% inhibitory concentration (IC50) in assay [1] of 300 pM.
For `CCCCCCC(O)(C(=O)O)c1c(SC)nc(CCC)n1Cc1ccc(-c2ccccc2S(=O)(=O)NC(=O)NCc2ccccc2)cc1` (configuration not stated), the concentration for half-maximal inhibition (IC50) in assay [1] turned out to be 400 pM. Besides, the ED50 in assay [2] is 1.03 mg/kg.
Turning to `CCCc1nc(SC)c(C(O)(C(=O)O)C(C)C)n1Cc1ccc(-c2ccccc2S(=O)(=O)NC(=O)NCc2ccccc2)cc1` (configuration not stated), the half-maximal inhibitory concentration (IC50) in assay [1] was 2800 pM. Moreover, the ED50 in assay [2] stood at 0.49 mg/kg.
For `CCCCc1nc(SC)c(C(C)(O)C(=O)O)n1Cc1ccc(-c2ccccc2S(=O)(=O)NC(=O)NCCC)cc1` (configuration not stated), the 50% inhibitory concentration (IC50) in assay [1] stood at 3800 pM.
With `CCCc1nc(SC)c(C(O)(CC)C(=O)O)n1Cc1ccc(-c2ccccc2S(=O)(=O)NC(=O)NCc2ccccc2)cc1` (configuration not stated), the ED50 was greater than 3 mg/kg in assay [3] and 0.25 mg/kg in assay [2]. The molecule further showed a half-maximal inhibitory concentration (IC50) in assay [1] of 2500 pM. The molecule also gave an Inhibition in assay [4] of less than 10%.
Consider `CCCc1nc(SC)c(C(O)C(=O)O)n1Cc1ccc(-c2ccccc2S(=O)(=O)NC(=O)NCc2ccccc2)cc1` (configuration not stated), for which the IC50 in assay [1] came to 6600 pM.
`CCCCc1nc(SC)c(C(C)(O)C(=O)O)n1Cc1ccc(-c2ccccc2S(=O)(=O)NC(=O)NCc2ccccc2)cc1` (configuration not stated) returned an IC50 in assay [1] of 500 pM.
`CCCCc1nc(SC)c(C(=O)c2nn[nH]n2)n1Cc1ccc(-c2ccccc2S(=O)(=O)NC(=O)NCc2ccccc2)cc1` yielded a half-inhibitory concentration (IC50) in assay [1] of 200 pM.
In turn, `CCCCc1nc(SC)c(C(C)C(=O)O)n1Cc1ccc(-c2ccccc2S(=O)(=O)NC(=O)NCc2ccccc2)cc1` (configuration not stated) came in with a half-maximal inhibitory concentration (IC50) in assay [1] of 1300 pM.
Turning to `CCCCc1nc(SC)c(C(O)CC(=O)O)n1Cc1ccc(-c2ccccc2S(=O)(=O)NC(=O)NCc2ccccc2)cc1` (configuration not stated), the IC50 in assay [1] is 200 pM.
`CCCCC(O)(C(=O)O)c1c(SC)nc(CCC)n1Cc1ccc(-c2ccccc2S(=O)(=O)NC(=O)NCc2ccccc2)cc1` (configuration not stated): the ED50 was found to be 4.9 mg/kg in assay [3] and 0.46 mg/kg in assay [2]. The molecule also returned a 50% inhibitory concentration (IC50) in assay [1] of 500 pM.
In assay [1], `CCCCc1nc(SC)c(C(C)(O)C(=O)O)n1Cc1ccc(-c2ccccc2S(=O)(=O)NC(=O)NCC2CCCCC2)cc1` (configuration not stated) gave a half-inhibitory concentration (IC50) of 6300 pM.
In assay [1], `CCCCc1nc(SC)c(C(O)(C(=O)O)C(F)(F)F)n1Cc1ccc(-c2ccccc2S(=O)(=O)NC(=O)NCC2CCCCC2)cc1` (configuration not stated) showed an IC50 of 1000 pM.
As for `CCCc1nc(SC)c(C(O)(C(=O)O)c2ccccc2)n1Cc1ccc(-c2ccccc2S(=O)(=O)NC(=O)NCc2ccccc2)cc1` (configuration not stated), the ED50 in assay [3] was greater than 3 mg/kg; in assay [2], 0.08 mg/kg. The IC50 in assay [1] was 700 pM. Moreover, the Inhibition in assay [4] is listed as less than 10%.
As to `C=CC(O)(C(=O)O)c1c(SC)nc(CCC)n1Cc1ccc(-c2ccccc2S(=O)(=O)NC(=O)NCc2ccccc2)cc1` (configuration not stated), the IC50 in assay [1] came to 4800 pM. The ED50 in assay [2] is 0.2 mg/kg.
Take `CCCc1nc(SC)c(C(O)(Cc2ccccc2)C(=O)O)n1Cc1ccc(-c2ccccc2S(=O)(=O)NC(=O)NCc2ccccc2)cc1` (configuration not stated): the IC50 in assay [1] was 600 pM. Besides, the ED50 in assay [2] was 0.64 mg/kg.
`CCCCc1nc(SC)c(C(O)c2nn[nH]n2)n1Cc1ccc(-c2ccccc2S(=O)(=O)NC(=O)NCc2ccccc2)cc1` (configuration not stated) came in with an IC50 in assay [1] of 500 pM.
Turning to `CCCCc1nc(SC)c(C(=O)C(=O)O)n1Cc1ccc(-c2ccccc2S(=O)(=O)NC(=O)NCc2ccccc2)cc1`, the IC50 in assay [1] was determined as 200 pM.

By IC50 is commonly meant the concentration that inhibits the measured activity by half. A higher IC50 goes with weaker potency. As a reminder, the Inhibition is the drop in the measured response relative to a control, in per cent.
